# Legend:
# CYP2C8 = target: T1, CYP2C8 (Homo sapiens, UniProt P10632); settings: previously reported; cited from earlier work
# T1 sequence (P10632 1-490): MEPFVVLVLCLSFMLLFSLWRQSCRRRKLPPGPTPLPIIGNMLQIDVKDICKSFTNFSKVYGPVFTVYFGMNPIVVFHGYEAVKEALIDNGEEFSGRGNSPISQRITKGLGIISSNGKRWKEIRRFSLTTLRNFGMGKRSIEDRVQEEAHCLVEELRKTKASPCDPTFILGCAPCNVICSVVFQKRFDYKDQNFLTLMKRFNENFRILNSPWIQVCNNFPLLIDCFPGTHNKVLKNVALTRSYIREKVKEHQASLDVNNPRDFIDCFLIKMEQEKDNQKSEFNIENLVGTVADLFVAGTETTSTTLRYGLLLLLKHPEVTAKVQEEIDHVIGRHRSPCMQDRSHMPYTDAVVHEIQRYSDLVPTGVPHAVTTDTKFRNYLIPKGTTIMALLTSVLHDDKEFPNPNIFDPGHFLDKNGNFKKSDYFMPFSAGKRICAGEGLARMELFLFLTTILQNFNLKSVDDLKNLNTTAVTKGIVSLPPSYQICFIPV
# [1] = target: T2, cytochrome P450 2C8 (CYP2C8) (Homo sapiens, UniProt P10632); settings: hepatocytes
# T2 sequence (P10632 1-490): T1 sequence (P10632 1-490)
# paclitaxel metabolism [2] = settings: Jamis-Dow et al., Am J. Clin. Oncol. 1997; cited from earlier work
# paclitaxel metabolism [3] = assay: Paclitaxel metabolism in primary human hepatocytes, overall; format: cell-based; settings: second experiment (FIG. 4), highest concentration tested (50 μM), 24 hours
# [4] = target: cytochrome P450 3A4 (CYP3A4) (Homo sapiens, UniProt P08684); settings: hepatocytes
# [5] = Quercetin levels in mouse liver after oral dose (HPLC); format: in vivo; settings: mice receiving oral quercetin 1000 mg/kg
# Procedure: Quercetin twelve hours prior to paclitaxel had no effect on system exposure. […] The peak levels of quercetin measured in the livers of mice receiving oral supplementation were approximately 15 μM, and occurred between 8 and 12 hours after the dose.
# Chain of cytochrome P450 3A4 (CYP3A4) (P08684 whole entry): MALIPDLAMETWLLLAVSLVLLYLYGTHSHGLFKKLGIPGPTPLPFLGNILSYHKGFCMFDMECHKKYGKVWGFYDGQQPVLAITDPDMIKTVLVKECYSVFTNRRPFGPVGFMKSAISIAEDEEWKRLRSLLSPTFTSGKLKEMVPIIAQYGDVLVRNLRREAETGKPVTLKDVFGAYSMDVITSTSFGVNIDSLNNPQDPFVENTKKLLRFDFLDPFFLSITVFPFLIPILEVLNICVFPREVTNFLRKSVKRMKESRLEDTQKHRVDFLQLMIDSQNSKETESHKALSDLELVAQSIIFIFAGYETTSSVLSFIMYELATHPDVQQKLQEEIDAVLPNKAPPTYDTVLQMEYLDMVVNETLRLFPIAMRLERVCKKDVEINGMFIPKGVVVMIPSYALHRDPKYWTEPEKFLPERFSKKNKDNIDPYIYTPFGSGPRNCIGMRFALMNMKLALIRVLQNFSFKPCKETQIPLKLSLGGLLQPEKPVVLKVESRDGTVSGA
inhibition of paclitaxel metabolism by CYP3A4 [4],peak levels of quercetin measured in the livers [5],SMILES,inhibition of the metabolism of paclitaxel by CYP2C8 (CYP2C8),inhibition of paclitaxel metabolism by CYP2C8 [1],inhibition of paclitaxel metabolism in humans (paclitaxel metabolism [2]),effect on paclitaxel metabolism (paclitaxel metabolism [3])
–,–,O=c1c(O)c(-c2ccc(O)cc2)oc2cc(O)cc(O)c12 [kaempherol],selectively inhibit,–,–,–
–,–,CC(=O)N1CCN(c2ccc(OCC3COC(Cn4ccnc4)(c4ccc(Cl)cc4Cl)O3)cc2)CC1 (stereo not drawn) [ketoconazole],–,concentration-dependent manner,unable to inhibit paclitaxel metabolism,–
–,–,O=C1C[C@@H](c2ccc(O)cc2)Oc2cc(O)cc(O)c21 [naringenin],selectively inhibit,–,–,–
concentration-dependent manner,approximately 15 μM,O=c1c(O)c(-c2ccc(O)c(O)c2)oc2cc(O)cc(O)c12 [quercetin],selectively inhibit,concentration-dependent manner,–,modest effect

# — patent publication US20010041706A1, “Blockade of taxane metabolism” (priority 2000, published 2001)
